The results in this text go back to patent publication US8530413B2, “Heterocyclically substituted methoxyphenyl derivatives with an oxo group, processes for preparation thereof and use thereof as medicaments” (Sanofi, priority 2010, dated 2013).

Broadly, the EC50 is the concentration giving half of the maximal effect.

For the assay, the target named is T1, GPCR GPR40 (Rattus norvegicus, UniProt Q8K3T4).
T1 construct: expressed in transfected cells; host or cells: HEK293
T1 sequence (Q8K3T4 whole entry): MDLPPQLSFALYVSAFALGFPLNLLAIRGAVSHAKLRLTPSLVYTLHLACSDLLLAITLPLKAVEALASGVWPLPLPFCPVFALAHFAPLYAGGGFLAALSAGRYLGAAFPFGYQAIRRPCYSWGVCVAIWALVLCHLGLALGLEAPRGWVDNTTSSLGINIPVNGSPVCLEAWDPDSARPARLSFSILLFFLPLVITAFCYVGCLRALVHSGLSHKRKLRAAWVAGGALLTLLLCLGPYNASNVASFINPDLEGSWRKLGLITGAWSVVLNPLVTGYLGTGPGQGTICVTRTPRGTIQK
Description: In vitro FLIPR assay with recombinant cells which express the GPCR GPR40 (intracellular Ca2+). The class given is cell-based. Particulars: recombinant HEK293 cells expressing GPR40; Fluo-4 Ca2+ change; 100% = 10 μM linoleic acid. As to the method: In Vitro FLIPR Assay with Recombinant Cells which Express the GPCR GPR40
Function-testing assays were performed by means of the FLIPR technique (“Fluorescence Imaging Plate Reader”, Molecular Devices Corp.). For this purpose, agonist-induced changes were determined in the intracellular concentration of Ca^2+ in recombinant HEK293 cells which expressed the GPCR GPR40.
For the studies, cells were sown into 96-well microtiter plates (60 000 cells/well) and left to grow overnight. The medium was removed and the cells were incubated in buffer which contains the fluorescent dye Fluo-4. After this loading with dye, the cells were washed, test substance was added and changes were measured in the intracellular Ca^2+ concentration in the FLIPR instrument. Results were presented as the percentage change relative to the control (0%: no test substance added; 100%: 10 μM reference agonist linoleic acid added) and used to calculate dose/effect curves, and EC50 values were determined.
On to `CC#CC(CC(=O)O)c1ccc(OCN2C(=O)C(C)(C)c3cc(Br)ccc32)cc1` (stereo not drawn) [Example 1, 3-[4-(5-Bromo-3,3-dimethyl-2-oxo-2,3-dihydroindol-1-ylmethoxy)phenyl]hex-4-ynoic acid], for which the EC50 amounted to 110 nM. In the case of `CC#CC(CC(=O)O)c1ccc(OCN2C(=O)C(C)(C)Oc3cc(Br)ccc32)cc1` (stereo not drawn) [Example 4, 3-[4-(7-Bromo-2,2-dimethyl-3-oxo-2,3-dihydrobenzo[1,4]oxazin-4-ylmethoxy)phenyl]hex-4-ynoic acid] it was 280 nM; in that of `CC#CC(CC(=O)O)c1ccc(OCN2C(=O)C(CC)(CC)c3cc(Br)ccc32)cc1` (stereo not drawn) [Example 5, 3-[4-(5-Bromo-3,3-diethyl-2-oxo-2,3-dihydroindol-1-ylmethoxy)phenyl]hex-4-ynoic acid], 180 nM; in that of `CC#CC(CC(=O)O)c1ccc(OCN2C(=O)C(C)(C)Oc3cccnc32)cc1` (stereo not drawn) [Example 9], 350 nM. For the compound `CC#CC(CC(=O)O)c1ccc(OCN2C(=O)CC(C)(C)c3cc(Br)ccc32)cc1` (stereo not drawn) [Example 6, 3-[4-(6-Bromo-4,4-dimethyl-2-oxo-3,4-dihydro-2H-quinolin-1-ylmethoxy)phenyl]hex-4-ynoic acid], the half-maximal effective concentration (EC50) was 440 nM.

Take `CC#CC(CC(=O)O)c1ccc(OCN2C(=O)C(C)(C)c3ccc(Br)cc32)cc1` (stereo not drawn) [Example 2, 3-[4-(6-Bromo-3,3-dimethyl-2-oxo-2,3-dihydro-indol-1-ylmethoxy)phenyl]hex-4-ynoic acid]: the EC50 came out at 4610 nM. In the case of `CC#CC(CC(=O)O)c1ccc(OCN2C(=O)C(C)(C)c3cc(C(F)(F)F)ccc32)cc1` (stereo not drawn) [Example 3, 3-[4-(3,3-Dimethyl-2-oxo-5-trifluoromethyl-2,3-dihydroindol-1-ylmethoxy)phenyl]hex-4-ynoic acid] it was 130 nM; in that of `CC#CC(CC(=O)O)c1ccc(OCN2C(=O)C(C)(C)Oc3ccccc32)cc1` (stereo not drawn) [Example 8, 3-[4-(2,2-Dimethyl-3-oxo-2,3-dihydrobenzo[1,4]oxazin-4-ylmethoxy)phenyl]hex-4-ynoic acid], 60 nM; in that of `CC#CC(CC(=O)O)c1ccc(OCn2c(=O)sc3ccccc32)cc1` (stereo not drawn) [Example 7, 3-[4-(2-Oxobenzothiazol-3-ylmethoxy)phenyl]hex-4-ynoic acid], 50 nM.
